Measurements taken from US8673914B2, “Use of phosphodiesterase inhibitors for treating multidrug resistance” (St. John's University, priority 2011, dated 2014).
Read-outs that look alike come from different tables or passages of the source. Marks after values point to notes of the source that are not given here.

How the values were obtained:
[1] = tested on: KB-3-1; assay: MTT cytotoxicity/reversal assay (Example 1); type: cell-based, human; details: read-out: IC50 of cisplatin, alone
Procedure: (§1) The KB-C2 and KB-3-1 were kindly provided by Dr. Akiyama (Kagoshima University, Japan). HEK293-pcDNA3.1 and wild-type HEK/ABCG2 transfected cells were established by selection with G418 after transfecting HEK293 with either (1) empty pcDNA3.1 vector or (2) pcDNA3.1 vector containing full length of ABCG2 coding arginine (R) at amino acid position 482, and were then cultured in a medium with 2 mg/ml of G418 (ABCG2-482-R2 cells). Similarly, the HEK/MRP1 (ABCC1) and HEK/ABCB1 cells were generated by transfecting the HEK293 cells with either the MRP1 expression vector or the ABCB1 expression vector. All of the cell lines were grown in Dulbecco's modified Eagle's medium (DMEM) supplemented with 10% bovine serum, 100 units/ml penicillin, and […] streptomycin in a humidified incubator containing 5% CO2 at 37° C.
(§2) The MTT assay was used to assess cytotoxicity. The cultured cells were harvested with trypsin and resuspended in a final concentration of 4×10^3 cells/well for KB-3-1; 7.5×10^3 cells/well for KB-C2; and 8×10^3 for all of the other cell lines used in this study. Cells were seeded evenly in 96-well multiplates. […] After 68 h of incubation, 20 μl of the MTT solution (4 mg/ml) was added to each well, and the plate was further incubated for 4 h at 37° C., allowing viable cells to convert the yellow-colored MTT into dark-blue formazan crystals. Subsequently, the medium was discarded, and 100 μl of DMSO was added into each well to dissolve the formazan crystals, generating purple color. The absorbance was determined at 570 nm by an OPSYS Microplate Reader from DYNEX Technologies, Inc. (Chantilly, Va.). […] The degree of the reversal of multidrug resistance (MDR) was calculated by dividing the IC50 of an anticancer drug, e.g., an antineoplastic or chemotherapeutic drug (agent, compound), in a cell type in the absence of a reversal agent by the IC50 of the anticancer drug in the same cell type in the presence of the reversal agent. The IC50 values were calculated from survival curves using the Bliss method.

[2] = tested on: HEK293/pcDNA3.1; assay: MTT cytotoxicity/reversal assay (Example 1); type: cell-based; details: read-out: IC50 of cisplatin; HEK293/pcDNA3.1; alone
Procedure: as §1, §2

[3] = tested on: KB-3-1; assay: MTT cytotoxicity/reversal assay (Example 2); type: cell-based, human; details: read-out: IC50 of cisplatin, alone
Procedure: (§3) The ABCB1-overexpressing drug resistant cell line KB-V1 (generously provided by Dr. Gottesman, NCI, NIH) was established by a stepwise concentration increase of vinblastine in the culture medium of KB-3-1 cells and subsequently culturing these cells in medium with 1 μg/mL of vinblastine. An ABCC1-overexpressing MDR cell line, KB-CV60, was also derived from KB-3-1 cells and was maintained in medium with 1 μg/mL of cepharanthine and 60 ng/mL of vincristine. Both KB-C2 and KB-CV60 cell lines were kindly provided by Dr. Akiyama (Kagoshima University, Japan). HEK293/pcDNA3.1, ABCG2-482-R5, ABCG2-482-G2, and ABCG2-482-T7 cells were established by selection with 2 mg/mL G418 after transfecting HEK293 with either (1) empty pcDNA3.1 vector or (2) pcDNA3.1 vector containing full length ABCG2 coding either (2a) wild-type arginine (R) or mutant (2b) glycine (G) or (2c) threonine (T) at amino acid position 482, respectively. The wild-type ABCG2-overexpressing drug-resistant cell line MCF-7/Flv1000 was cultured in the medium with 1 μM of flavopiridol. […] Another G482 mutant ABCG2-overexpressing drug resistant cell line, S1-M1-80, was maintained in the medium with 80 μM of mitoxantrone. […] All the cell lines were grown as adherent monolayers in flasks with DMEM (Dulbecco's modified Eagle's medium) culture medium (Hyclone Co.) containing 10% bovine serum at 37° C. in a humidified atmosphere of 5% CO2.
(§4) Cells in 96-well plates were preincubated with or without the reversal agents for 1 h and then different concentrations of chemotherapeutic drugs were added into designated wells. After 68 h of incubation, MTT solution (4 mg/mL) was added to each well, and the plate was further incubated for 4 h, allowing viable cells to change the yellow-colored MTT into dark-blue formazan crystals. Subsequently the medium was discarded, and […] of DMSO was added into each well to dissolve the formazan crystals. The absorbance was determined at 570 nm by an OPSYS MR Microplate Reader from DYNEX Technologies, Inc.

[4] = tested on: KB-C2; assay: MTT cytotoxicity/reversal assay (Example 2); type: cell-based, human; details: read-out: IC50 of cisplatin, alone
Procedure: as §3, §4

[5] = tested on: KB-V1; assay: MTT cytotoxicity/reversal assay (Example 2); type: cell-based, human; details: read-out: IC50 of cisplatin, alone
Procedure: as §3, §4

[6] = tested on: HEK293/pcDNA3; assay: MTT cytotoxicity/reversal assay (Example 2); type: cell-based
Procedure: as §3, §4

[7] = tested on: MCF-7/Flv1000; assay: MTT cytotoxicity/reversal assay (Example 2); type: cell-based
Procedure: as §3, §4

[8] = tested on: MCF-7; assay: MTT cytotoxicity/reversal assay (Example 2); type: cell-based
Procedure: as §3, §4

[9] = tested on: MCF7/ADVP3000; assay: MTT cytotoxicity/reversal assay (Example 2); type: cell-based
Procedure: as §3, §4

[10] = tested on: S1-M1-80; assay: MTT cytotoxicity/reversal assay (Example 2); type: cell-based
Procedure: as §3, §4

[11] = tested on: S1; assay: MTT cytotoxicity/reversal assay (Example 2); type: cell-based
Procedure: as §3, §4

[12] = tested on: S1/FLV5000; assay: cells; type: cell-based; details: S1/FLV5000, alone
Procedure: as §3, §4

[13] = tested on: HEK 293-pcDNA-3.1; assay: MTT cytotoxicity assay (Example 4); type: cell-based
Procedure: (§5) The MRP7 cDNA was generously provided by Dr. Gary Kruh (University of Illinois, Chicago, Ill.) and inserted into the pcDNA3.1 expression vector. […] Individual colonies were selected in medium containing G418 (1 mg/ml) and cultured for further analysis.
(§6) MTT colorimetric assay was performed to analyze the drug sensitivity as previously described (Shi et al. (2007) Cancer Res. 67:11012-20). HEK293-pcDNA3.1 and HEK/MRP7 cells were seeded into 96-well plates in triplicate at 6000 cells/well.
(§7) After drug incubation of 68 h, 20 μl MTT solution (4 mg/ml) was added into each well. […] The Bliss method was used to calculate the IC50 values according to survival curves.

[14] = MTT cytotoxicity assay (Example 4); type: cell-based; details: human; HEK/MRP7; alone; read-out: IC50 of docetaxel;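 on fold-resistance, docetaxel: drug IC50 in HEK/MRP7 divided by IC50 in parental HEK293-pcDNA3.1 cells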
Procedure: as §5, §6, §7

[15] = tested on: HEK/MRP7; assay: MTT cytotoxicity assay (Example 4); type: cell-based; details: alone;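 on fold-resistance, docetaxel: drug IC50 in HEK/MRP7 divided by IC50 in parental HEK293-pcDNA3.1 cells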
Procedure: as §5, §6, §7

[16] = tested on: HEK/ABCG2-G2; assay: MTT cytotoxicity/reversal assay (Example 2)
Procedure: as §3, §4

[17] = tested on: HEK/ABCG2-R5; assay: MTT cytotoxicity/reversal assay (Example 2)
Procedure: as §3, §4

[18] = tested on: HEK/ABCG2-T7; assay: MTT cytotoxicity/reversal assay (Example 2)
Procedure: as §3, §4

[19] = read-out: IC50 of cisplatin, alone
[20] = Homo sapiens, alone, read-out: IC50 of flavopiridol

Work on `N.N.[Cl][Pt][Cl]` [Cisplatin, cisplatin] yielded an IC50 [1] of 1900 ± 70.9 nM, an IC50 [2] of 890000 ± 33900 nM and an IC50 [3] of 1740 ± 161 nM. For the same compound, the IC50 [4] was 1730 ± 83 nM, the IC50 [5] was 1760 ± 178 nM and the IC50 [6, 19] was 1630 ± 170 nM. The IC50 ([7]; read-out: IC50 of cisplatin, MCF-7/Flv1000, alone) was 35100 ± 1860 nM, the IC50 [8, 19] was 34400 ± 1760 nM and the IC50 [9, 19] was 31100 ± 3200 nM. It also gave an IC50 [10, 19] of 18000 ± 2590 nM, an IC50 [11, 19] of 14700 ± 2230 nM and an IC50 ([12]; read-out: IC50 of cisplatin) of 53400 ± 5800 nM. For the same compound, the IC50 ([13]; read-out: IC50 of cisplatin, HEK 293-pcDNA-3.1, alone) was 1570 ± 85 nM.

For `CC(=O)O[C@@]12CO[C@@H]1C[C@H](O)[C@@]1(C)C(=O)[C@H](O)C3=C(C)[C@@H](OC(=O)[C@H](O)[C@@H](NC(=O)OC(C)(C)C)c4ccccc4)C[C@@](O)([C@@H](OC(=O)c4ccccc4)[C@H]21)C3(C)C` [Docetaxel, docetaxel], the IC50 at 68 h [14] was 64.8 ± 5.19 nM, the “fold-resistance, docetaxel” value ([13]; HEK 293-pcDNA-3.1, alone) was “(1.0)” and the IC50 ([13]; read-out: IC50 of docetaxel) was 5.73 ± 0.65 nM. The “fold-resistance, docetaxel” value [15] was “(11.31)”.

For `CN1CC[C@H](c2c(O)cc(O)c3c(=O)cc(-c4ccccc4Cl)oc23)[C@H](O)C1` [Flavopiridol, flavopiridol], the IC50 [6, 20] was 164 ± 17.1 nM, the “fold-resistance, flavopiridol” value ([6]; alone) was “(1.0)^c” and the “fold-resistance, flavopiridol” value ([7]; MCF-7/Flv1000, alone) was “(19.9)”. The IC50 ([7]; MCF-7 FLV1000, read-out: IC50 of flavopiridol) was 6860 ± 479 nM, the IC50 ([8]; Homo sapiens, MCF7, alone, read-out: IC50 of flavopiridol) was 344.3 ± 2.1 nM and the “fold-resistance, flavopiridol” value ([8]; alone) was “(1.0)^c”. For the same compound, the IC50 [9, 20] was 3900 ± 414 nM, the “fold-resistance, flavopiridol” value ([9]; alone) was “(11.3)” and the IC50 [10, 20] was 699 ± 47 nM. The “fold-resistance, flavopiridol” value ([10]; alone) was “(7.3)”, the “fold-resistance, flavopiridol” value ([11]; alone) was “(1.0)^c” and the IC50 ([11]; alone, read-out: IC50 of flavopiridol) was 96.1 ± 9.6 nM. The “fold-resistance, flavopiridol” value [12] was “(64.9)”, the IC50 ([12]; read-out: IC50 of flavopiridol) was 6200 ± 463 nM and the “fold-resistance, flavopiridol” value [16] was “(2.4)”. The “fold-resistance, flavopiridol” value [17] was “(1.7)” and the “fold-resistance, flavopiridol” value [18] was “(4.6)”.
